# Values quoted from earlier work, collected in patent US9854807B2, “Potentiation of fixed coppers and other pesticides containing copper and supplementing plant nutrition” (priority 2014, dated 2018).
# Conditions: terms used by Richardson
smiles,measurement,value
[Cl-].[Cu+2].[Cu+2].[OH-].[OH-].[OH-] [Copper(2) Oxychloride],solubility in water,essentially insoluble in water
